The text below walks through data of US20040024027A1 (priority 2000, published 2004).

This data set is described as follows: Exposure to 75% Relative Humidity atmosphere (re-weighing and infrared spectrum). In kind it is physicochemical. The note with it: sealed container, 75% Relative Humidity (saturated sodium chloride solution), 21° C., 96 hours. The text has this: The sample was re-weighed and the infrared spectrum of the product recorded.

Molecules are shown by their SMILES.

Consider `CN(CCOc1ccc(CC2SC(=O)NC2=O)cc1)c1ccccn1.I` (centres unmarked) [Hydriodide, 5-[4-[2-(N-Methyl-N-(2-pyridyl)amino)ethoxy]benzyl]thiazolidine-2,4-dione Hydriodide], for which the “Infrared spectrum after humidity exposure” value is reported as “no change” and the “Sample weight after humidity exposure” value is listed as “no weight gain”.
